Measurements published in PubChem BioAssay AID1996.
Values after ≈ are worked out from the molar mass of the structure shown.

details: buffer; pH 7.4; 200.0 µM

| SMILES | solubility kinetic [µg/mL] |
| --- | --- |
| Cc1c(C#N)c2ccccc2n1C | 19.9 (≈ 117 µM) |
| CCSc1nc2ccc(C)cc2cc1C#N | < 0.2 |
| O=C(COc1ccc(F)cc1Br)NCCCN1CCCC1=O | > 56 |
| N/C(=N\OC(=O)c1cccnc1)c1ccccc1Cl | 38.9 (≈ 141 µM) |
| CC(C)C[C@H](NC(=O)NCc1ccc(F)cc1)C(=O)O | > 42.3 |
| CCC(=O)N(Cc1cc(=O)[nH]c2ccccc12)c1ccccc1OC | > 50.5 |
| Cc1ccc(F)c(N=Cc2c(O)c3ccccc3oc2=O)c1 | 1.8 (≈ 6.05 µM) |
| COc1cccc(NC(=O)COC(=O)/C=C/c2ccco2)c1 | 30.5 (≈ 101 µM) |
| Nc1cc(C(F)(F)F)ccc1NCCc1ccccn1 | 36.8 (≈ 131 µM) |
| O=C(O)CCNS(=O)(=O)c1ccc2c(c1)CCCC2 | > 42.5 |
| O=S(=O)([N-]c1nc2ccccc2nc1-[n+]1ccccc1)c1ccc(F)cc1 | 50.3 (≈ 132 µM) |
| O=C(O)CSCC(=O)NC1CCCc2ccccc21 (stereo not given) | > 41.9 |
| COc1ccccc1C(=O)NC(=O)Nc1c(C)cc(C)cc1C | 0.7 (≈ 2.24 µM) |
| COc1cccc(/C=C/C(=O)N2CCN(c3ccccn3)CC2)c1 | > 48.5 |
| O=C1CN(C(=O)COC(=O)c2ccc([N+](=O)[O-])s2)c2ccccc2N1 | 9.3 (≈ 25.7 µM) |
| Clc1ccc(CN2CCSCC2)cc1Cl | 2.6 (≈ 9.92 µM) |
| COC(=O)C1C(O)=C(C=Nc2cccc3ccccc23)C(=O)CC1(C)C (stereo not given) | 31.6 (≈ 89.9 µM) |
| Nc1ccc(C(=O)NCCCSc2ccccc2)cc1[N+](=O)[O-] | 1.6 (≈ 4.83 µM) |
| COc1ccc(NC(=O)CNc2cc(S(=O)(=O)N3CCOCC3)ccc2N2CCOCC2)c(OC)c1 | 4.2 (≈ 8.07 µM) |
| COc1ccc2c3c([nH]c2c1)C(C)=NCC3 | 30.6 (≈ 143 µM) |
| O=C(Nc1ncc([N+](=O)[O-])s1)c1ccccc1Br | 41.1 (≈ 125 µM) |
| Cc1ccc(C(=O)OCC(=O)NC2CCCc3ccccc32)o1 (stereo not given) | 13.1 (≈ 41.8 µM) |
| CCN1CCN(C(C)CCc2ccccc2)CC1 (stereo not given) | 30.6 (≈ 124 µM) |
| N#C/C(=C\c1ccccc1O)C(=O)Nc1cccnc1 | 2.6 (≈ 9.8 µM) |

| SMILES | solubility kinetic [µg/mL] |
| --- | --- |
| COC(=O)c1ccccc1NC(=O)NCCc1ccccc1OC.Cl | 6.3 |
| N/C(CC(=O)Nc1ccc(F)cc1F)=N\OC(=O)c1cccs1 | 16.3 (≈ 48 µM) |
| COC(=O)c1c(C)[nH]c(C(=O)OCC(=O)c2ccc(C)s2)c1C | 5.7 (≈ 17 µM) |
| Cc1ccc(CONC(=O)c2cccc([N+](=O)[O-])c2)cc1 | > 42.9 |
| Cc1onc(-c2ccccc2)c1NC(=O)N(CCC#N)Cc1cccs1 | 54.4 (≈ 148 µM) |
| CC(C)C(=O)O/N=C(\N)c1ccc(Oc2ccc(Cl)cc2)c([N+](=O)[O-])c1 | 3.5 (≈ 9.26 µM) |
| C=CCOc1ccc(/C=C2\SC(N)=NC2=O)cc1OC | 5.7 (≈ 19.6 µM) |
| N#Cc1ccc(OCC(=O)N2CCc3ccccc32)cc1 | 1.8 (≈ 6.47 µM) |
| Cc1cc(C)c2c(CC(=O)N3CCCC3)coc2c1 | > 38.6 |
| COc1cc(NC(=O)c2ccccn2)cc(OC)c1OC | > 43.2 |
| CC1(C)CC(=O)C=C(Nc2ccc(O)c(C(=O)O)c2)C1 | > 41.3 |
| Cc1cccc(NC(=O)NCC2CC2)c1 | > 30.6 |
| O=C1NCCN/C1=C\C(=O)c1ccc(F)cc1 | 32.5 (≈ 139 µM) |
| COc1ccc(CCNC(=O)COC(=O)c2cc(Cl)nc(Cl)c2)cc1 | 23.6 (≈ 61.6 µM) |
| O=C(N1CCCC1)C12CC3CC(CC(Cl)(C3)C1)C2 | 37.9 (≈ 142 µM) |
| COc1ccccc1OC(C)C(=O)N1CCc2ccccc21 (stereo not given) | 3.3 (≈ 11.1 µM) |
| Cc1csc2c(=O)n(CCO)c(=O)[nH]c12 | > 33.9 |
| Cc1ccc(NC(=O)COc2ccc(C(=O)c3ccccc3)cc2)c(O)c1 | 2.8 (≈ 7.75 µM) |
| O=C(NCCNC(=O)c1ccccc1F)c1ccco1.O=C(O)C(=O)O | 51.5 |
| COC(=O)[C@@H](NC(=O)N1CCC(C)CC1)C(C)C | 34 (≈ 133 µM) |
| CCOc1ccc(CN(C)C(=O)CNC(=O)C2CCCCC2)cc1 | > 49.9 |
| COc1cccc(NC(=O)N2CCCCCC2)c1 | > 37.2 |
| CN1C(=O)c2ccc(C(=O)Nc3cccnc3)cc2C1=O | > 42.2 |
| CC(C)c1nc(SCC(=O)NC(=O)NC(C)(C)C)n[nH]1 | > 44.9 |

| SMILES | solubility kinetic [µg/mL] |
| --- | --- |
| Cc1ccc(S(=O)(=O)N(CC2CO2)c2cccc([N+](=O)[O-])c2)cc1 (stereo not given) | 43.9 (≈ 126 µM) |
| Cc1cc(CNC(=O)COc2ccc([N+](=O)[O-])cc2)c2ccccc2n1 | 2.3 (≈ 6.55 µM) |
| O=C(COC(=O)c1ccc2c(c1)OCO2)Nc1ccccc1OC(F)F | 3.7 (≈ 10.1 µM) |
| Cc1c(C(=O)Nc2ccccn2)sc2nc3n(c(=O)c12)CCC3 | 32.9 (≈ 101 µM) |
| CCN(Cc1ccccc1)C(=O)c1cc2c(OC)c(OC)c(OC)cc2[nH]1 | 31.8 (≈ 86.3 µM) |
| OC(COc1ccccc1)CN1CCCC1 (stereo not given) | > 33.2 |
| COc1ccc(C(=O)N2CCN=C2SC)cc1 | > 37.5 |
| CSc1ccccc1NC(=S)NCc1ccc(Cl)cc1 | 2.5 (≈ 7.74 µM) |
| Cc1cccnc1NC(=S)NC(=O)c1oc2ccccc2c1C | 4.7 (≈ 14.4 µM) |
| Cc1cccc(C)c1NC(=O)CNC(=O)c1cccnc1 | > 42.5 |
| Cc1ccc(NC(=O)CN2CCc3ccccc3C2)cc1C | 18.8 (≈ 63.9 µM) |
| Cc1nnc(SCC(=O)NC2CC2)n1CC1CCCO1 (stereo not given) | > 44.5 |
| CN(Cc1nc2ccccc2c(=O)[nH]1)C(=O)c1cccc(S(=O)(=O)N2CCc3ccccc32)c1 | 36.5 (≈ 76.9 µM) |
| O=C(COC(=O)c1ccc(O)cc1)NCCC1=CCCCC1 | > 45.5 |
| CC(C)c1ccccc1NC1=NCCCS1 | 35 (≈ 149 µM) |
| O=C(COC(=O)c1ccc2c(c1)OCO2)NC1CCCCC1 | 18.4 (≈ 60.3 µM) |
| O=Cc1c[nH]c2ccc(C(=O)c3ccccc3)cc12 | 4.3 (≈ 17.3 µM) |
| c1ccc(-c2nc3cccnc3nc2-c2ccccc2)cc1 | 33.1 (≈ 117 µM) |
| CC(C)C1Nc2ccc(C(=O)NC3CCCCC3)cc2NC1=O (stereo not given) | > 47.3 |
| C=CCn1c(O)c(C(CC)=NCc2ccc3c(c2)OCO3)c(=O)[nH]c1=O | 3 (≈ 8.39 µM) |
| CCNc1ccc(S(=O)(=O)N2CCCCC2)cn1 | > 40.4 |
| O=C(CN1C(=O)c2cccc3cccc1c23)NC1CCCC1 | 4.4 (≈ 14.9 µM) |
| CC(C)(C)NC(=S)N1CCn2cccc2C1c1cccnc1 (stereo not given) | 33.5 (≈ 107 µM) |
| Nc1ccc(C(=O)[O-])cc1.[K+] | 24.1 |

| SMILES | solubility kinetic [µg/mL] |
| --- | --- |
| COc1ccc(OC)c(NC(=O)CCCc2ccccc2)c1 | 24.5 (≈ 81.8 µM) |
| C/C(N)=C(/C#N)C(=O)COC(=O)c1cccc(C)c1O | 1.5 (≈ 5.47 µM) |
| Cc1ccc(N/C=C/C(=O)c2ccco2)c(O)c1 | 1.4 (≈ 5.76 µM) |
| Cc1cccc(-n2ccc(=O)c(C(=O)O)n2)c1 | > 34.5 |
| O=C(Cc1ccc(F)cc1)N1CCN(c2ccc(F)cc2)CC1 | > 47.5 |
| COc1ccc(-c2csc(N=C(N)N)n2)cc1 | 12.2 (≈ 49.1 µM) |
| CN1CCN(c2ccccc2/C=C2/C(=O)Nc3ccccc32)CC1 | > 47.9 |
| NCCS(=O)(=O)O | 1.2 (≈ 9.59 µM) |
| COc1c(C)cc(C(=O)C2CCCN(C(=O)/C=C/c3ccccn3)C2)cc1C (stereo not given) | 40.6 (≈ 107 µM) |
| CC(=O)C1=C(O)C(=O)N(c2ccccn2)C1c1cccc(F)c1 (stereo not given) | > 46.8 |
| COC(=O)c1cnc(SCC(=O)c2ccccc2)n1C | > 43.6 |
| O=C1Nc2ccccc2/C1=C/c1ccccc1F | 2.4 (≈ 10 µM) |
| COc1cccc(N=Cc2nc(-c3ccccc3)oc2OC(C)=O)c1 | 10.1 (≈ 30 µM) |
| CCOC(=O)c1cc(C)nc(Sc2ccc(C)cc2)c1C#N | 3.1 (≈ 9.92 µM) |
| CC(=O)c1ccc(N/C=C/C(=O)c2ccc(Br)cc2)cc1 | 0.8 (≈ 2.32 µM) |
| CCCN1C(=O)/C(=C/c2nc3ccccc3c(=O)[nH]2)c2cc(C)ccc21 | < 0.2 |
| COc1ccc(CCNC(=O)NS(=O)(=O)c2ccc(C)cc2)cc1OC | > 56.8 |
| CC(NCCc1ccc(O)cc1)C(O)c1ccc(O)cc1.Cl (stereo not given) | > 48.6 |
| O=C(COc1ccc(S(=O)(=O)N2CCCC2)cc1)N1CCCCC1 | 47.6 (≈ 135 µM) |
| COc1cc(C=O)ccc1OCc1ccncc1 | 35.2 (≈ 145 µM) |
| COc1cc(NC(=O)CN2CCCCCC2)cc(OC)c1 | > 43.9 |
| Nc1ccc(-n2cc(-c3ccccc3)[nH]c2=S)cc1 | 12.6 (≈ 47.1 µM) |
| CC(C)CCSc1cc(NCCO)c([N+](=O)[O-])c2nonc12 | 10 (≈ 30.6 µM) |
| COc1cccc(CNc2nccs2)c1O | > 35.4 |

| SMILES | solubility kinetic [µg/mL] |
| --- | --- |
| CN(CC(=O)Nc1ccccc1Cl)C(=O)CCNC(=O)Nc1ccccc1 | > 58.3 |
| CNS(=O)(=O)c1cccc(C(=O)OC2CCOC2=O)c1 (stereo not given) | > 44.9 |
| O=C(CSc1nnc(-c2ccco2)o1)Nc1ccccc1Cl | > 50.4 |
| Cc1ccc(NC(=O)COCC(=O)Nc2ccc(C)cc2)cc1 | 3.1 (≈ 9.92 µM) |
| O=C(CCl)Nc1ncc(S(=O)(=O)c2ccc([N+](=O)[O-])cc2)s1 | > 54.3 |
| CCOc1ccc(/C=C(\C#N)C(=O)Nc2ccccn2)cc1 | 2.7 (≈ 9.2 µM) |
| CC(=O)c1cccc(NC(=O)CN2C(=O)c3ccccc3C2=O)c1 | 13.9 (≈ 43.1 µM) |
| COc1nc2ccccc2nc1CCC(=O)O | > 34.8 |
| O=S(=O)(c1ccccc1)N1CCN(CCO)CC1 | > 40.6 |
| CCc1cc(=O)oc2c(C)c(OC(C)C(=O)N3CCC[C@@H]3C(=O)O)ccc12 (stereo not given in full) | > 56 |
| COc1ccccc1NC(=O)C(C)N(C)CC(=O)Nc1cccc2ccccc12.Cl (stereo not given) | > 64.2 |
| Cc1ccc(Nc2c(-c3ccccc3)nc3cnccn23)cc1 | 1.1 (≈ 3.66 µM) |
| CN(C)CCCN1C(=O)CSC1c1ccc([N+](=O)[O-])cc1.Cl (stereo not given) | 47.6 |
| COC(=O)CSc1nccc(-c2ccc(F)cc2)c1C#N | < 0.3 |
| COc1cc2c(cc1OC)C(C)N(C(=O)c1c(-c3ccccc3)noc1C)CC2 (stereo not given) | 9 (≈ 22.9 µM) |
| CCc1cccc(CC)c1NC(=S)Nc1cccc(Cl)c1Cl | 1.4 (≈ 3.96 µM) |
| O=C(CSc1cccc[n+]1[O-])Nc1cc(Cl)ccc1[N+](=O)[O-] | > 51 |
| NC(=O)CCN1CCCCC1 | > 23.4 |
| Cn1ccsc1=NC(=O)c1ccc(CS(C)(=O)=O)cc1 | > 46.6 |
| O=C(c1cc(Cl)ccc1Cl)N1CCN(Cc2ccccc2)CC1 | > 52.4 |
| COc1cccc(-c2csc(NC(=O)Nc3ccccc3)n2)c1 | < 0.2 |
| COc1cc(C(=O)Nc2ccncc2)c([N+](=O)[O-])cc1OC | > 45.5 |
| CCOC(=O)c1ccc(NC(=O)Nc2ccon2)cc1 | 6 (≈ 21.8 µM) |
| COc1ccc(NC(=O)CN2C(=O)C(C)Oc3ccc(C)cc32)cc1 (stereo not given) | 9.6 (≈ 28.2 µM) |
